Reference: ChEMBL document CHEMBL4011644, “3-Hydroxy-N'-arylidenepropanehydrazonamides with Halo-Substituted Phenanthrene Scaffolds Cure P. berghei Infected Mice When Administered Perorally” (J Med Chem, 2017)
The source made the active and inactive calls. The calls are words filed in the database; no cut-off is given here.

Test system: Plasmodium berghei
Experiment: Antiplasmodial activity against Plasmodium berghei infected in NMRI mouse assessed as reduction in parasitemia at 50 mg/kg, po administered at 4, 24, 48, 72 hrs post infection measured on day 4 post infection by Peter's test relative to control
Format: functional
Design: scale not given: the % may be the effect or the level left
Settings: not given
For `CN(C)Cc1cc(/C=N/N=C(\N)CC(O)c2cc3ccccc3c3ccccc23)ccc1O` (stereo not drawn), the Activity was 99.8%.
`CCN(CC)Cc1cc(/C=N/N=C(\N)CC(O)c2cc3ccccc3c3ccccc23)cc(CN(CC)CC)c1O` (stereo not drawn) showed an Activity of 96.7%.
In the case of `CCN(CC)Cc1cc(/C=N/N=C(\N)CC(O)c2cc3ccccc3c3ccccc23)ccc1O` (stereo not drawn), the Activity is reported as 99.9%.

Test system: Mus musculus
Experiment: Toxicity in NMRI mouse infected with Plasmodium berghei assessed as reduction in physical activity at 50 mg/kg, ip administered at 4, 24, 48, 72 hrs post infection
Format: organism-based
Settings: in vivo
With `CN(C)Cc1cc(/C=N/N=C(\N)CC(O)c2cc3ccccc3c3ccccc23)ccc1O` (stereo not drawn) the Activity was “Non-Toxic”.
With `CCN(CC)Cc1cc(/C=N/N=C(\N)CC(O)c2cc3ccccc3c3ccccc23)cc(CN(CC)CC)c1O` (stereo not drawn) the Activity was “Toxic”.
With `CCN(CC)Cc1cc(/C=N/N=C(\N)CC(O)c2cc3ccccc3c3ccccc23)ccc1O` (stereo not drawn) the Activity was “Non-Toxic”.

Test system: Mus musculus
Experiment: Toxicity in NMRI mouse infected with Plasmodium berghei assessed as diarrhea at 50 mg/kg, ip administered at 4, 24, 48, 72 hrs post infection
Format: organism-based
Settings: in vivo
In the case of `CN(C)Cc1cc(/C=N/N=C(\N)CC(O)c2cc3ccccc3c3ccccc23)ccc1O` (stereo not drawn), the Activity is reported as “Non-Toxic”.
In the case of `CCN(CC)Cc1cc(/C=N/N=C(\N)CC(O)c2cc3ccccc3c3ccccc23)cc(CN(CC)CC)c1O` (stereo not drawn), the Activity is reported as “Toxic”.
For `CCN(CC)Cc1cc(/C=N/N=C(\N)CC(O)c2cc3ccccc3c3ccccc23)ccc1O` (stereo not drawn), the Activity was “Non-Toxic”.

Test system: Plasmodium falciparum
Experiment: Antiplasmodial activity against chloroquine-sensitive asexual blood stages of Plasmodium falciparum 3D7 after 72 hrs by HRP2-based ELISA
Format: functional
Settings: 3D7, 72 h
`N/C(CC(O)c1cc2ccccc2c2ccccc12)=N\N=C\C1CCCCC1` (stereo not drawn) gave an IC50 of 330 nM.
Work on `N/C(CC(O)c1cc2ccccc2c2ccccc12)=N\N=C1CCCCCC1` (stereo not drawn) yielded an IC50 of 180 nM.
Work on `CN(C)Cc1cc(/C=N/N=C(\N)CC(O)c2cc3ccccc3c3ccccc23)ccc1O` (stereo not drawn) yielded an IC50 of 2.5 nM.
For `CCN(CC)Cc1cc(/C=N/N=C(\N)CC(O)c2cc3ccccc3c3ccccc23)cc(CN(CC)CC)c1O` (stereo not drawn), the IC50 was 1.5 nM.
With `CCN(CC)Cc1cccc(/C=N/N=C(\N)CC(O)c2cc3ccccc3c3ccccc23)c1` (stereo not drawn) the IC50 was 25 nM.
Compound `CCN(CC)Cc1cc(/C=N/N=C(\N)CC(O)c2cc3ccccc3c3ccccc23)ccc1O` (stereo not drawn) has an IC50 of 0.97 nM.
Compound `CCCCC(/C=N/N=C(\N)CC(O)c1cc2ccccc2c2ccccc12)CCCC` (stereo not drawn) has an IC50 of 60 nM.

Test system: Plasmodium berghei
Experiment: Antiplasmodial activity against Plasmodium berghei infected in NMRI mouse assessed as parasite-free mouse at 30 mg/kg, po administered at 4, 24, 48, 72 hrs post infection measured on day 30 by Peter's test
Format: functional, organism-based
Settings: not given
In the case of `CCN(CC)CCCC(C)Nc1ccnc2cc(Cl)ccc12` (stereo not drawn) [CHLOROQUINE], the Activity is reported as “inactive”.

Test system: Plasmodium berghei
Experiment: Antiplasmodial activity against Plasmodium berghei infected in NMRI mouse assessed as mean survival time at 50 mg/kg, ip administered at 4, 24, 48, 72 hrs post infection by Peter's test (reference value: 6 to 7 day)
Format: functional
Settings: not given
In the case of `CN(C)Cc1cc(/C=N/N=C(\N)CC(O)c2cc3ccccc3c3ccccc23)ccc1O` (stereo not drawn), the MST is reported as 22 days.
`CCN(CC)Cc1cc(/C=N/N=C(\N)CC(O)c2cc3ccccc3c3ccccc23)cc(CN(CC)CC)c1O` (stereo not drawn) showed an MST of 11 days.
Compound `CCN(CC)Cc1cc(/C=N/N=C(\N)CC(O)c2cc3ccccc3c3ccccc23)ccc1O` (stereo not drawn) has an MST of 30 days.

Test system: Plasmodium berghei
Experiment: Antiplasmodial activity against Plasmodium berghei infected in NMRI mouse assessed as reduction in parasitemia at 50 mg/kg, ip administered at 4, 24, 48, 72 hrs post infection measured on day 4 post infection by Peter's test relative to control
Format: functional
Design: scale not given: the % may be the effect or the level left
Settings: not given
`CN(C)Cc1cc(/C=N/N=C(\N)CC(O)c2cc3ccccc3c3ccccc23)ccc1O` (stereo not drawn) showed an Activity of 99.8%.
Compound `CCN(CC)Cc1cc(/C=N/N=C(\N)CC(O)c2cc3ccccc3c3ccccc23)cc(CN(CC)CC)c1O` (stereo not drawn) has an Activity of 99.8%.
Work on `CCN(CC)Cc1cc(/C=N/N=C(\N)CC(O)c2cc3ccccc3c3ccccc23)ccc1O` (stereo not drawn) yielded an Activity of 99.7%.

Test system: Plasmodium berghei
Experiment: Antiplasmodial activity against Plasmodium berghei infected in NMRI mouse assessed as parasite-free mouse at 50 mg/kg, po administered at 4, 24, 48, 72 hrs post infection measured on day 30 by Peter's test
Format: functional, organism-based
Settings: not given
In the case of `N/C(CC(O)c1cc2ccccc2c2ccccc12)=N\N=C1CCCCCC1` (stereo not drawn), the Activity is reported as “inactive”.
In the case of `CN(C)Cc1cc(/C=N/N=C(\N)CC(O)c2cc3ccccc3c3ccccc23)ccc1O` (stereo not drawn), the Activity is reported as “inactive”.
In the case of `CCN(CC)Cc1cc(/C=N/N=C(\N)CC(O)c2cc3ccccc3c3ccccc23)cc(CN(CC)CC)c1O` (stereo not drawn), the Activity is reported as “inactive”.
In the case of `CCN(CC)Cc1cccc(/C=N/N=C(\N)CC(O)c2cc3ccccc3c3ccccc23)c1` (stereo not drawn), the Activity is reported as “inactive”.
For `CCN(CC)Cc1cc(/C=N/N=C(\N)CC(O)c2cc3ccccc3c3ccccc23)ccc1O` (stereo not drawn), the Activity was “inactive”.

Test system: not listed separately
Experiment: Selectivity index, ratio of IC50 for human HepG2 cells to IC50 for chloroquine-sensitive asexual blood stages of Plasmodium falciparum 3D7
Format: toxicity
Settings: read-out: Ratio IC50
With `N/C(CC(O)c1cc2ccccc2c2ccccc12)=N\N=C\C1CCCCC1` (stereo not drawn) the selectivity ratio was 83.
For `N/C(CC(O)c1cc2ccccc2c2ccccc12)=N\N=C\c1ccc(F)cc1` (stereo not drawn), the selectivity ratio was over 1040.
Compound `N/C(CC(O)c1cc2ccccc2c2ccccc12)=N\N=C1CCCCCC1` (stereo not drawn) has a selectivity ratio of 139.
Compound `CN(C)Cc1cc(/C=N/N=C(\N)CC(O)c2cc3ccccc3c3ccccc23)ccc1O` (stereo not drawn) has a selectivity ratio of 6680.
Work on `CCN(CC)Cc1cc(/C=N/N=C(\N)CC(O)c2cc3ccccc3c3ccccc23)cc(CN(CC)CC)c1O` (stereo not drawn) yielded a selectivity ratio of 9530.
Work on `CCN(CC)Cc1cccc(/C=N/N=C(\N)CC(O)c2cc3ccccc3c3ccccc23)c1` (stereo not drawn) yielded a selectivity ratio of 664.
`CCN(CC)Cc1cc(/C=N/N=C(\N)CC(O)c2cc3ccccc3c3ccccc23)ccc1O` (stereo not drawn) gave a selectivity ratio of 14700.
`CCCCC(/C=N/N=C(\N)CC(O)c1cc2ccccc2c2ccccc12)CCCC` (stereo not drawn) showed a selectivity ratio of 127.

Test system: Plasmodium berghei
Experiment: Antiplasmodial activity against Plasmodium berghei infected in NMRI mouse assessed as parasite-free mouse at 50 mg/kg, ip administered at 4, 24, 48, 72 hrs post infection measured on day 30 by Peter's test
Format: functional, organism-based
Settings: not given
With `CN(C)Cc1cc(/C=N/N=C(\N)CC(O)c2cc3ccccc3c3ccccc23)ccc1O` (stereo not drawn) the Activity was “inactive”.
In the case of `CCN(CC)Cc1cc(/C=N/N=C(\N)CC(O)c2cc3ccccc3c3ccccc23)cc(CN(CC)CC)c1O` (stereo not drawn), the Activity is reported as “inactive”.

Test system: HepG2
Experiment: Cytotoxicity against human HepG2 cells by CellTiterGlo assay
Format: cell-based
Settings: not given
Compound `N/C(CC(O)c1cc2ccccc2c2ccccc12)=N\N=C\C1CCCCC1` (stereo not drawn) has an IC50 of 27400 nM.
In the case of `N/C(CC(O)c1cc2ccccc2c2ccccc12)=N\N=C\c1ccc(F)cc1` (stereo not drawn), the IC50 is reported as over 10000 nM.
In the case of `N/C(CC(O)c1cc2ccccc2c2ccccc12)=N\N=C1CCCCCC1` (stereo not drawn), the IC50 is reported as 25400 nM.
Work on `CN(C)Cc1cc(/C=N/N=C(\N)CC(O)c2cc3ccccc3c3ccccc23)ccc1O` (stereo not drawn) yielded an IC50 of 16700 nM.
Compound `CCN(CC)Cc1cc(/C=N/N=C(\N)CC(O)c2cc3ccccc3c3ccccc23)cc(CN(CC)CC)c1O` (stereo not drawn) has an IC50 of 14300 nM.
With `CCN(CC)Cc1cccc(/C=N/N=C(\N)CC(O)c2cc3ccccc3c3ccccc23)c1` (stereo not drawn) the IC50 was 16600 nM.
`CCN(CC)Cc1cc(/C=N/N=C(\N)CC(O)c2cc3ccccc3c3ccccc23)ccc1O` (stereo not drawn) gave an IC50 of 14300 nM.
With `CCCCC(/C=N/N=C(\N)CC(O)c1cc2ccccc2c2ccccc12)CCCC` (stereo not drawn) the IC50 was 7600 nM.

Test system: Plasmodium falciparum
Experiment: Antiplasmodial activity against multidrug-resistant asexual blood stages of Plasmodium falciparum Dd2 after 72 hrs by HRP2-based ELISA
Format: functional
Settings: Dd2, 72 h
Work on `N/C(CC(O)c1cc2ccccc2c2ccccc12)=N\N=C\C1CCCCC1` (stereo not drawn) yielded an IC50 of 720 nM.
Work on `N/C(CC(O)c1cc2ccccc2c2ccccc12)=N\N=C\c1ccc(F)cc1` (stereo not drawn) yielded an IC50 of 1.14 nM.
Work on `N/C(CC(O)c1cc2ccccc2c2ccccc12)=N\N=C1CCCCCC1` (stereo not drawn) yielded an IC50 of 140 nM.
Work on `CN(C)Cc1cc(/C=N/N=C(\N)CC(O)c2cc3ccccc3c3ccccc23)ccc1O` (stereo not drawn) yielded an IC50 of 0.97 nM.
`CCN(CC)Cc1cc(/C=N/N=C(\N)CC(O)c2cc3ccccc3c3ccccc23)cc(CN(CC)CC)c1O` (stereo not drawn) gave an IC50 of 3.3 nM.
Compound `CCN(CC)Cc1cccc(/C=N/N=C(\N)CC(O)c2cc3ccccc3c3ccccc23)c1` (stereo not drawn) has an IC50 of 36 nM.
`CCN(CC)Cc1cc(/C=N/N=C(\N)CC(O)c2cc3ccccc3c3ccccc23)ccc1O` (stereo not drawn) showed an IC50 of 3.4 nM.
With `CCCCC(/C=N/N=C(\N)CC(O)c1cc2ccccc2c2ccccc12)CCCC` (stereo not drawn) the IC50 was 92 nM.

Biological target: Voltage-gated inwardly rectifying potassium channel KCNH2 (Homo sapiens, UniProt Q12809)
Sequence (Q12809 whole entry): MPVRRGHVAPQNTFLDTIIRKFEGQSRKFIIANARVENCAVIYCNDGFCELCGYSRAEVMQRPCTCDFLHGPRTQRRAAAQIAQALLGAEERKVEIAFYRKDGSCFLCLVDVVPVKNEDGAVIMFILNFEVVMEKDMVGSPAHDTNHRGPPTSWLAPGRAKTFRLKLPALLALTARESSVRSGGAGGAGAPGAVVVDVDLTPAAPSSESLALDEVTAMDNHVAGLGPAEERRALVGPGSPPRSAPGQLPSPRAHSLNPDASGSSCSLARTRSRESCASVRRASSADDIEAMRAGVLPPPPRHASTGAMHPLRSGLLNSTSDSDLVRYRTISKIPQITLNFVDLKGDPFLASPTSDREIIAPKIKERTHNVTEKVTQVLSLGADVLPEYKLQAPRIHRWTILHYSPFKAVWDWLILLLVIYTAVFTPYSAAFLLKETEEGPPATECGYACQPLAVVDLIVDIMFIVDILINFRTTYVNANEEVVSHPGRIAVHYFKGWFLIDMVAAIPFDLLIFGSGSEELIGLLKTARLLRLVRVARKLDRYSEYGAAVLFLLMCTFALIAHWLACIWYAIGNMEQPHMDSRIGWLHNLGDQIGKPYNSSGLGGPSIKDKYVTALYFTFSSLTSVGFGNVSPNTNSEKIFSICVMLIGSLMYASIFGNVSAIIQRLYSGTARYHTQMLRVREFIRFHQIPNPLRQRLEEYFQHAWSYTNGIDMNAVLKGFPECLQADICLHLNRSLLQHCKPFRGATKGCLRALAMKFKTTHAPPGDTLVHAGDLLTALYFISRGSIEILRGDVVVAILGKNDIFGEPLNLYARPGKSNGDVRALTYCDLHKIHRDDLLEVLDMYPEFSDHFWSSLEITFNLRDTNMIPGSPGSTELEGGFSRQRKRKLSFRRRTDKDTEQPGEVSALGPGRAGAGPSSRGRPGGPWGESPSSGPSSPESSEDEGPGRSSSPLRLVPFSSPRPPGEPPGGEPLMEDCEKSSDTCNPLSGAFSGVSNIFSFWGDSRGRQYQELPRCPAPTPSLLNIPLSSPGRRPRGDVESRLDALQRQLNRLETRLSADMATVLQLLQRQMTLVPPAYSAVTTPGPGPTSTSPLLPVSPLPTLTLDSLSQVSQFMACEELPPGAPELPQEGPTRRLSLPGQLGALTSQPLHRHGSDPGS
Experiment: Inhibition of human ERG by fluorescence polarization assay
Settings: not given
`CCCCN(CCCC)CC(O)c1cc(Cl)cc2c1-c1ccc(Cl)cc1/C2=C/c1ccc(Cl)cc1` (stereo not drawn) [LUMEFANTRINE] gave an IC50 of 377 nM.

Test system: Plasmodium berghei
Experiment: Antiplasmodial activity against Plasmodium berghei infected in NMRI mouse assessed as mean survival time at 50 mg/kg, po administered at 4, 24, 48, 72 hrs post infection by Peter's test (reference value: 6 to 7 day)
Format: functional
Settings: not given
With `CN(C)Cc1cc(/C=N/N=C(\N)CC(O)c2cc3ccccc3c3ccccc23)ccc1O` (stereo not drawn) the MST was 24.7 days.
`CCN(CC)Cc1cc(/C=N/N=C(\N)CC(O)c2cc3ccccc3c3ccccc23)cc(CN(CC)CC)c1O` (stereo not drawn) gave an MST of 11 days.
`CCN(CC)Cc1cc(/C=N/N=C(\N)CC(O)c2cc3ccccc3c3ccccc23)ccc1O` (stereo not drawn) showed an MST of 28.2 days.
